Test results as given in PMC8910697, “Development of VPC-70619, a Small-Molecule N-Myc Inhibitor as a Potential Therapy for Neuroendocrine Prostate Cancer” (International Journal of Molecular Sciences, 2022).
“Also recorded” adds a separate entry of the source.

Columns and labels:
[1] = target: T1, N-Myc-Max heterodimer (Homo sapiens, UniProt P04198+P61244); assay: Proximity ligation assay (PLA) in LNCaP-NMYC cells; assay type: cell-based; conditions: 10 µM, 72 h
T1 construct: expressed in transfected cells; host or cells: LNCaP-NMYC cells (gift from David Rickman)
Method: To confirm that 70619 could disrupt the binding of N-Myc-Max DBD to DNA, we performed a bio-layer interferometry (BLI) assay where we immobilized biotinylated E-box sequence on streptavidin sensors, and we evaluated recombinant N-Myc-Max binding to the DNA in the presence of increasing concentrations of VPC-70619. […] We observed a similar number of interactions when comparing the ratio of signal per nuclei in the presence or absence of the compound.
LNCaP-NMYC cells were seeded on coverslips at a density of 10^5 cells per well of a 6-well plate. After incubation for 24 h the cells were treated with 10 μM of either 10074-G5 or 70619 for 72 h. The coverslips were fixed with methanol:acetone (3:1) and incubated with primary antibodies n-Myc Antibody (NMYC-1) (Novus Biologicals NB200-109) (Littleton, CO, USA) and MAX Antibody (C-17) (Santa Cruz sc-197) (Dallas, TX, USA) overnight at 4 °C. PLA was conducted using the Duolink In Situ Detection Reagents Red kit (Sigma DUO92008) according to the manufacturer’s protocol. The coverslips were then mounted on slides with VECTASHIELD mounting media with DAPI, and images were taken on ZEISS 780 confocal microscope at 40× magnification.

[2] = Microsomal stability assay; assay type: in vitro ADME, Mouse; conditions: mouse liver microsomes, 1 µM compound
Method: A microsomal stability assay was performed using the Corning Gentest NADPH Regenerating System (Corning, #451220/41200) (Corning, NY, USA). Mouse liver microsomes (MLM) (Xenotech, M1000) (Kansas City, KS, USA) and compounds were diluted to a final concentration of 0.15 mg/mL and 1 μM respectively. These were prepared into a 500 μL solution with 100 mM potassium phosphate buffer (pH = 7.4). Imipramine was used as a control. NADPH solutions A and B were mixed in a 5:1 ratio, and 24 μL of the NADPH was added to each of the MLM/compound samples at 30 s intervals. At time points 10, 20, and 45 min, 100 μL of reaction was added to the stopping solution. Samples were centrifuged at 18,000× g and incubated at 4 °C for 10 min. Samples were then loaded onto a LC-MS 96-well plate for analysis.

T1 sequence (P04198 whole entry): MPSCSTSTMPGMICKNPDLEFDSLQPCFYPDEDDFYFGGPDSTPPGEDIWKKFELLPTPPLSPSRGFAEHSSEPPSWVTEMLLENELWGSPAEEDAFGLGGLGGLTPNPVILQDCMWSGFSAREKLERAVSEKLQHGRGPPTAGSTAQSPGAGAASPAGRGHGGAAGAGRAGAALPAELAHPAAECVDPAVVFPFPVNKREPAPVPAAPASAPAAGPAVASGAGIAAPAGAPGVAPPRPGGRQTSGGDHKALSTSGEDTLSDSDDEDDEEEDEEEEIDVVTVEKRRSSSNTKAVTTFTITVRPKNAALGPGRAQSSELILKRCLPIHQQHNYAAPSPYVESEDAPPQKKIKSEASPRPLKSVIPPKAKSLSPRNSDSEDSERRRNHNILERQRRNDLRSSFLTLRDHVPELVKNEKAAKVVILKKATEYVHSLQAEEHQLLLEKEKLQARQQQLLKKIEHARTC
T1 sequence (P61244 whole entry): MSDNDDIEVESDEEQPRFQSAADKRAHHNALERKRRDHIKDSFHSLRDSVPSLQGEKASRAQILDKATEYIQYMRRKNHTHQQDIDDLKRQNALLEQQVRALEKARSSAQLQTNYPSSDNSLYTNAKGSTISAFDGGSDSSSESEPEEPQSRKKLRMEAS

O=[N+]([O-])c1ccc(Nc2ccccc2-c2ccccc2)c2nonc12 [10074-G5, reference compound]
effect on N-Myc-Max heterodimer interactions (in words) [1]: significant decrease in the number of interactions; also recorded: the number of interactions is reduced
microsomal half-life (T1/2) [2]: 3 min
